From the supplement of paper PMC8882468

Each molecule was assayed on HCI-025 (organoid from a breast cancer xenograft) (assay: CTG-3D luminescence at 96 h relative to day-0 seeding control (ratio to day 0); higher = more growth / less cytotoxicity; PDxO 3D drug screen, 96 h, CTG-3D normalised to day-0 seeding control.). Conditions: 10 µM; days in culture: 209.

| Compound | CTG-3D luminescence at 96 h |
| --- | --- |
| COc1cc2c(Oc3ccc4[nH]c(C)cc4c3F)ncnc2cc1OCCCN1CCCC1 [cediranib] | 0.022 |
| CC(C)n1nc(-c2ccc3oc(N)nc3c2)c2c(N)ncnc21 [sapanisertib] | 0.217 |
| Cc1cc(Nc2ncnc3ccc(NC4=NC(C)(C)CO4)cc23)ccc1Oc1ccn2ncnc2c1 [tucatinib] | 1.9 |
| C[C@H](NC(=O)CCC(F)(F)F)C(=O)N[C@@H]1C(=O)N(CCO)c2ncccc2-c2ccccc21 [crenigacestat] | 1.57 |
| C[C@]12CC[C@@H]3c4ccc(O)cc4C[C@@H](CCCCCCCCC[S+]([O-])CCCC(F)(F)C(F)(F)F)[C@H]3[C@@H]1CC[C@@H]2O (some centres not stated) [fulvestrant] | 1.4 |
| O=C(c1ccc(F)c(F)c1Nc1ccc(I)cc1F)N1CC(O)([C@@H]2CCCCN2)C1 [cobimetinib] | 1.26 |
| O=C(/C=C/c1cccnc1)NCCCCC1CCN(C(=O)c2ccccc2)CC1 [FK866] | 0.0413 |
| CS(=O)(=O)c1ccc(C(=O)Nc2ccc(Cl)c(-c3ccccn3)c2)c(Cl)c1 [vismodegib] | 1.4 |
| C=CCn1c(=O)c2cnc(Nc3ccc(N4CCN(C)CC4)cc3)nc2n1-c1cccc(C(C)(C)O)n1 [adavosertib] | 0.124 |

Same assay, conditions: 10 µM; days in culture: 218

| Compound | CTG-3D luminescence at 96 h |
| --- | --- |
| COc1cc2c(Oc3ccc4[nH]c(C)cc4c3F)ncnc2cc1OCCCN1CCCC1 [cediranib] | 0.0433 |
| CC(C)n1nc(-c2ccc3oc(N)nc3c2)c2c(N)ncnc21 [sapanisertib] | 0.291 |
| Cc1cc(Nc2ncnc3ccc(NC4=NC(C)(C)CO4)cc23)ccc1Oc1ccn2ncnc2c1 [tucatinib] | 1.62 |
| C[C@H](NC(=O)CCC(F)(F)F)C(=O)N[C@@H]1C(=O)N(CCO)c2ncccc2-c2ccccc21 [crenigacestat] | 2.32 |
| C[C@]12CC[C@@H]3c4ccc(O)cc4C[C@@H](CCCCCCCCC[S+]([O-])CCCC(F)(F)C(F)(F)F)[C@H]3[C@@H]1CC[C@@H]2O (some centres not stated) [fulvestrant] | 1.93 |
| O=C(c1ccc(F)c(F)c1Nc1ccc(I)cc1F)N1CC(O)([C@@H]2CCCCN2)C1 [cobimetinib] | 1.58 |
| O=C(/C=C/c1cccnc1)NCCCCC1CCN(C(=O)c2ccccc2)CC1 [FK866] | 0.00874 |
| CS(=O)(=O)c1ccc(C(=O)Nc2ccc(Cl)c(-c3ccccn3)c2)c(Cl)c1 [vismodegib] | 1.88 |
| C=CCn1c(=O)c2cnc(Nc3ccc(N4CCN(C)CC4)cc3)nc2n1-c1cccc(C(C)(C)O)n1 [adavosertib] | 0.215 |

Same assay, conditions: 100 µM; days in culture: 172

| Compound | CTG-3D luminescence at 96 h |
| --- | --- |
| COc1cc2c(Oc3ccc4[nH]c(C)cc4c3F)ncnc2cc1OCCCN1CCCC1 [cediranib] | -0.00438 |
| CC(C)n1nc(-c2ccc3oc(N)nc3c2)c2c(N)ncnc21 [sapanisertib] | 0.00492 |
| Cc1cc(Nc2ncnc3ccc(NC4=NC(C)(C)CO4)cc23)ccc1Oc1ccn2ncnc2c1 [tucatinib] | 0.0232 |
| C[C@H](NC(=O)CCC(F)(F)F)C(=O)N[C@@H]1C(=O)N(CCO)c2ncccc2-c2ccccc21 [crenigacestat] | 1.98 |
| C[C@]12CC[C@@H]3c4ccc(O)cc4C[C@@H](CCCCCCCCC[S+]([O-])CCCC(F)(F)C(F)(F)F)[C@H]3[C@@H]1CC[C@@H]2O (some centres not stated) [fulvestrant] | 2.24 |
| O=C(c1ccc(F)c(F)c1Nc1ccc(I)cc1F)N1CC(O)([C@@H]2CCCCN2)C1 [cobimetinib] | -0.00396 |
| O=C(/C=C/c1cccnc1)NCCCCC1CCN(C(=O)c2ccccc2)CC1 [FK866] | -0.00051 |
| CS(=O)(=O)c1ccc(C(=O)Nc2ccc(Cl)c(-c3ccccn3)c2)c(Cl)c1 [vismodegib] | 0.368 |
| C=CCn1c(=O)c2cnc(Nc3ccc(N4CCN(C)CC4)cc3)nc2n1-c1cccc(C(C)(C)O)n1 [adavosertib] | 0.128 |

Same assay, conditions: 100 µM; days in culture: 209

| Compound | CTG-3D luminescence at 96 h |
| --- | --- |
| COc1cc2c(Oc3ccc4[nH]c(C)cc4c3F)ncnc2cc1OCCCN1CCCC1 [cediranib] | -0.00409 |
| CC(C)n1nc(-c2ccc3oc(N)nc3c2)c2c(N)ncnc21 [sapanisertib] | 0.0409 |
| Cc1cc(Nc2ncnc3ccc(NC4=NC(C)(C)CO4)cc23)ccc1Oc1ccn2ncnc2c1 [tucatinib] | 0.0118 |
| C[C@H](NC(=O)CCC(F)(F)F)C(=O)N[C@@H]1C(=O)N(CCO)c2ncccc2-c2ccccc21 [crenigacestat] | 1.45 |
| C[C@]12CC[C@@H]3c4ccc(O)cc4C[C@@H](CCCCCCCCC[S+]([O-])CCCC(F)(F)C(F)(F)F)[C@H]3[C@@H]1CC[C@@H]2O (some centres not stated) [fulvestrant] | 1.23 |
| O=C(c1ccc(F)c(F)c1Nc1ccc(I)cc1F)N1CC(O)([C@@H]2CCCCN2)C1 [cobimetinib] | -0.00298 |
| O=C(/C=C/c1cccnc1)NCCCCC1CCN(C(=O)c2ccccc2)CC1 [FK866] | 0.0255 |
| CS(=O)(=O)c1ccc(C(=O)Nc2ccc(Cl)c(-c3ccccn3)c2)c(Cl)c1 [vismodegib] | 0.0933 |
| C=CCn1c(=O)c2cnc(Nc3ccc(N4CCN(C)CC4)cc3)nc2n1-c1cccc(C(C)(C)O)n1 [adavosertib] | 0.157 |

Same assay, conditions: 100 µM; days in culture: 218

| Compound | CTG-3D luminescence at 96 h |
| --- | --- |
| COc1cc2c(Oc3ccc4[nH]c(C)cc4c3F)ncnc2cc1OCCCN1CCCC1 [cediranib] | -0.00599 |
| CC(C)n1nc(-c2ccc3oc(N)nc3c2)c2c(N)ncnc21 [sapanisertib] | 0.0278 |
| Cc1cc(Nc2ncnc3ccc(NC4=NC(C)(C)CO4)cc23)ccc1Oc1ccn2ncnc2c1 [tucatinib] | 0.249 |
| C[C@H](NC(=O)CCC(F)(F)F)C(=O)N[C@@H]1C(=O)N(CCO)c2ncccc2-c2ccccc21 [crenigacestat] | 1.58 |
| C[C@]12CC[C@@H]3c4ccc(O)cc4C[C@@H](CCCCCCCCC[S+]([O-])CCCC(F)(F)C(F)(F)F)[C@H]3[C@@H]1CC[C@@H]2O (some centres not stated) [fulvestrant] | 1.21 |
| O=C(c1ccc(F)c(F)c1Nc1ccc(I)cc1F)N1CC(O)([C@@H]2CCCCN2)C1 [cobimetinib] | -0.00137 |
| O=C(/C=C/c1cccnc1)NCCCCC1CCN(C(=O)c2ccccc2)CC1 [FK866] | 0.00784 |
| CS(=O)(=O)c1ccc(C(=O)Nc2ccc(Cl)c(-c3ccccn3)c2)c(Cl)c1 [vismodegib] | -0.104 |
| C=CCn1c(=O)c2cnc(Nc3ccc(N4CCN(C)CC4)cc3)nc2n1-c1cccc(C(C)(C)O)n1 [adavosertib] | 0.0695 |

Same assay, conditions: 625 fM; days in culture: 172

| Compound | CTG-3D luminescence at 96 h |
| --- | --- |
| COc1cc2c(Oc3ccc4[nH]c(C)cc4c3F)ncnc2cc1OCCCN1CCCC1 [cediranib] | 2.12 |
| CC(C)n1nc(-c2ccc3oc(N)nc3c2)c2c(N)ncnc21 [sapanisertib] | 2.01 |
| Cc1cc(Nc2ncnc3ccc(NC4=NC(C)(C)CO4)cc23)ccc1Oc1ccn2ncnc2c1 [tucatinib] | 2.16 |
| C[C@H](NC(=O)CCC(F)(F)F)C(=O)N[C@@H]1C(=O)N(CCO)c2ncccc2-c2ccccc21 [crenigacestat] | 2.44 |
| C[C@]12CC[C@@H]3c4ccc(O)cc4C[C@@H](CCCCCCCCC[S+]([O-])CCCC(F)(F)C(F)(F)F)[C@H]3[C@@H]1CC[C@@H]2O (some centres not stated) [fulvestrant] | 2.87 |
| O=C(c1ccc(F)c(F)c1Nc1ccc(I)cc1F)N1CC(O)([C@@H]2CCCCN2)C1 [cobimetinib] | 2.94 |
| O=C(/C=C/c1cccnc1)NCCCCC1CCN(C(=O)c2ccccc2)CC1 [FK866] | 2.06 |
| CS(=O)(=O)c1ccc(C(=O)Nc2ccc(Cl)c(-c3ccccn3)c2)c(Cl)c1 [vismodegib] | 2.37 |
| C=CCn1c(=O)c2cnc(Nc3ccc(N4CCN(C)CC4)cc3)nc2n1-c1cccc(C(C)(C)O)n1 [adavosertib] | 1.79 |

Same assay, conditions: 625 fM; days in culture: 209

| Compound | CTG-3D luminescence at 96 h |
| --- | --- |
| COc1cc2c(Oc3ccc4[nH]c(C)cc4c3F)ncnc2cc1OCCCN1CCCC1 [cediranib] | 1.31 |
| CC(C)n1nc(-c2ccc3oc(N)nc3c2)c2c(N)ncnc21 [sapanisertib] | 1.33 |
| Cc1cc(Nc2ncnc3ccc(NC4=NC(C)(C)CO4)cc23)ccc1Oc1ccn2ncnc2c1 [tucatinib] | 1.06 |
| C[C@H](NC(=O)CCC(F)(F)F)C(=O)N[C@@H]1C(=O)N(CCO)c2ncccc2-c2ccccc21 [crenigacestat] | 1.58 |
| C[C@]12CC[C@@H]3c4ccc(O)cc4C[C@@H](CCCCCCCCC[S+]([O-])CCCC(F)(F)C(F)(F)F)[C@H]3[C@@H]1CC[C@@H]2O (some centres not stated) [fulvestrant] | 1.44 |
| O=C(c1ccc(F)c(F)c1Nc1ccc(I)cc1F)N1CC(O)([C@@H]2CCCCN2)C1 [cobimetinib] | 1.83 |
| O=C(/C=C/c1cccnc1)NCCCCC1CCN(C(=O)c2ccccc2)CC1 [FK866] | 2.16 |
| CS(=O)(=O)c1ccc(C(=O)Nc2ccc(Cl)c(-c3ccccn3)c2)c(Cl)c1 [vismodegib] | 1.57 |
| C=CCn1c(=O)c2cnc(Nc3ccc(N4CCN(C)CC4)cc3)nc2n1-c1cccc(C(C)(C)O)n1 [adavosertib] | 2.05 |

Same assay, conditions: 625 fM; days in culture: 218

| Compound | CTG-3D luminescence at 96 h |
| --- | --- |
| COc1cc2c(Oc3ccc4[nH]c(C)cc4c3F)ncnc2cc1OCCCN1CCCC1 [cediranib] | 1.86 |
| CC(C)n1nc(-c2ccc3oc(N)nc3c2)c2c(N)ncnc21 [sapanisertib] | 1.99 |
| Cc1cc(Nc2ncnc3ccc(NC4=NC(C)(C)CO4)cc23)ccc1Oc1ccn2ncnc2c1 [tucatinib] | 1.71 |
| C[C@H](NC(=O)CCC(F)(F)F)C(=O)N[C@@H]1C(=O)N(CCO)c2ncccc2-c2ccccc21 [crenigacestat] | 2.02 |
| C[C@]12CC[C@@H]3c4ccc(O)cc4C[C@@H](CCCCCCCCC[S+]([O-])CCCC(F)(F)C(F)(F)F)[C@H]3[C@@H]1CC[C@@H]2O (some centres not stated) [fulvestrant] | 1.28 |
| O=C(c1ccc(F)c(F)c1Nc1ccc(I)cc1F)N1CC(O)([C@@H]2CCCCN2)C1 [cobimetinib] | 1.71 |
| O=C(/C=C/c1cccnc1)NCCCCC1CCN(C(=O)c2ccccc2)CC1 [FK866] | 1.85 |
| CS(=O)(=O)c1ccc(C(=O)Nc2ccc(Cl)c(-c3ccccn3)c2)c(Cl)c1 [vismodegib] | 1.87 |
| C=CCn1c(=O)c2cnc(Nc3ccc(N4CCN(C)CC4)cc3)nc2n1-c1cccc(C(C)(C)O)n1 [adavosertib] | 1.86 |
